Test results as given in patent US20240093184A1, “CHEMICALLY REVERSIBLE 2`-OH ACYLATION PROTECTS RNA FROM HYDROLYTIC AND ENZYMATIC DEGRADATION” (The Board of Trustees of the Leland Stanford Junior …, priority 2022, published 2024).

Key:
[1] = tested on: EMX1-sgRNA; assay: In vitro DNA cleavage function of CRISPR sgRNA; assay type: biochemical; settings: Tris for DMG-cloaked sgRNA, DABCO for alkoxy acylimidazole-cloaked sgRNA; neutral pH, 11 hours
[2] = tested on: RNase T1; assay: Nucleolytic degradation of cloaked eGFP-mRNA by RNase T1; assay type: biochemical
From the text: (§1) In this example, we systemically surveyed protective effects of cloaking with representative RNases and biofluids, recapitulating the common enzymatic conditions RNAs encounter during storage, handling, and application (FIG. 7). […] We next evaluated whether cloaking could ameliorate mRNA degradation in fetal bovine serum (FBS), a frequent component of eukaryotic cell culture (FIG. 8). […] This is likely due in part to DMG acylimidazole retaining RNA secondary structures and helicity for maximum resistance to RNases. Acylating reagents also protect eGFP-mRNA against FBS to varying degrees. […] Thus, 2′-acylation provides context-dependent protection of long RNA (e.g., mRNA) against ribonucleolytic enzymes. Reagent DMG acylimidazole effectively shields mRNA against a broad range of RNases.

[3] = tested on: RNase A; assay: Nucleolytic degradation of cloaked eGFP-mRNA by RNase A; assay type: biochemical
From the text: as §1

[4] = tested on: HEK293; assay: Translation of cloaked eGFP-mRNA in HEK293 cells; assay type: cell-based, human
[5] = tested on: SW480; assay: Translation of cloaked eGFP-mRNA in SW480 cells; assay type: cell-based, human
[6] = Serum stability of cloaked RNA motifs; assay type: in vitro ADME
From the text: (§2) In this example, we systematically characterized how acylimidazoles affect enzymatic degradation of EMX1-sgRNA in serum, a 105nt single guide RNA (sgRNA) for CRISPR-Cas9 gene editing (FIG. 7). […] Among all reagents, DMG acylimidazole enhanced sgRNA stability the most, by up to 14-fold. […] Although such protection most likely extends to other RNAs, the secondary structures of RNA may influence the magnitude of enhancement in enzymatic stability. […] This is likely due in part to different RNA motifs having distinct “hotspots” for enzymatic degradation, which may not be completely shielded by cloaking. Taken together, 2′-acylation effectively enhances the serum stability of RNA, the magnitude of which may be influenced by the length and structure of the underlying RNA.

[7] = tested on: eGFP-mRNA; assay: In vitro translation assay of cloaked and uncloaked eGFP-mRNA; assay type: biochemical
From the text: introduced into the coding region of mRNAs. Thus, we investigated whether Tris could restore the translation of a model eGFP-mRNA densely cloaked (50%) by DMG acylimidazole. […] To explore the generality of this observation, we applied the methods to an in vitro transcribed CRISPR sgRNA. Acylation of EMX1-sgRNA by other reagents blocked its cleavage function (<10%) in vitro.

[8] = tested on: HeLa cells; assay: Translation of cloaked d2GFP-mRNA in HeLa cells; assay type: cell-based, human
Experimental: We therefore adopted a reporter system employing mRNA encoding a destabilized green fluorescent protein d2GFP, where both mRNA and protein degradation occur with similar half-lives of ˜2-3 hours. We observed that the translation of unprotected d2GFP-mRNA quickly descended after peaking. […] Taken together, RNA cloaking by DMG derivative DMG acylimidazole effectively extended d2GFP-mRNA functional lifespan and translation, providing insights for the potential use of reversible 2′-acylation as a modulator of mRNA translation kinetics.

[9] = tested on: 18nt model RNA; assay: Nucleophile screen for removal (uncloaking) of 2′-acyl adducts; assay type: physicochemical; settings: for reversibility of acyl adducts by nucleophiles: 37° C., neutral pH
From the text: Nucleophiles are known to catalyze ester hydrolysis; examples include the use of imidazole and pyridine as nucleophilic catalysts. To restore biological activity of RNAs after cloaking-based stabilization, we tested uncloaking strategies to promote rapid hydrolysis of 2′-carboxyl esters with weakly basic nucleophiles (FIG. 5). […] In the library design, we avoided the use of strong Bronsted bases to prevent hydrolytic RNA backbone cleavage. Nucleophiles were screened against the 18nt model RNA containing acyl groups of each type at 37° C. and neutral pH, which identified at least 9 sensitive acylation-nucleophile pairs that promoted >50% removal of adducts within 2 hours. […] Other adducts can also be rapidly removed with designated nucleophiles, with half-lives for reversal ranging from 1.1 to 1.8 hours.
For 2′-acyl adduct by DMG, the effects of the biocompatible tris(hydroxymethyl) aminomethane (Tris) buffer alone were substantial, consistent with previous reports that Tris can hydrolyze active esters.

[10] = Serum stability of cloaked EMX1-sgRNA; assay type: in vitro ADME; settings: 105nt sgRNA
From the text: as §2

[11] = tested on: eGFP-mRNA; assay: Accelerated RNA aging of cloaked eGFP-mRNA in RNase-free water at 37° C., capillary electrophoresis; assay type: physicochemical; settings: for resistance of cloaked eGFP-mRNA to thermal degradation: equivalently cloaked (˜50% of unpaired accessible 2′-OH); for extension of lifespan of eGFP-mRNA: extensive cloaking (>90% of accessible 2′-hydroxyls)
Experimental: (§3) In this example, the capacity to use this RNA cloaking strategy to stabilize RNA in solution was assessed with accelerated RNA aging experiments by incubating eGFP-mRNA species with or without cloaking with NAIN3 ((2-(azidomethyl)pyridin-3-yl)(1H-imidazol-1-yl)methanone) in RNase-free water at a mildly elevated temperature (37° C.) (FIG. 1). We then evaluated the lifespan of the mRNA by measuring the relative fraction of remaining fully intact RNA over time. […] Acylation-induced stabilization was further tested on a second, longer mRNA. […] No depurination of adenosine and […] was observed during the span of degradation experiments (FIG. 2). See, for example, FIG. 1.
(§4) We screened these acylimidazole reagents for modulation of RNA thermal degradation by performing accelerated RNA aging experiments with eGFP-mRNA aliquots that were equivalently cloaked (˜50% of unpaired accessible 2′-OH). Representative CE data are shown in FIG. 1 for cloaked eGFP-mRNA, which resisted thermal degradation across broad substituent types. […] Noting subtle differences in the stabilization, we hypothesized that the varying protection afforded by the reagents might arise from differential hydrolytic stability of their adducts; this was later confirmed (see below). […] To compensate for this, more extensive cloaking by N,N-dimethylglycine (DMG) acylimidazole (>90% of unpaired accessible 2″-OH) extended the lifespan of eGFP-m RNA by ˜5-fold.

[12] = tested on: EMX1-sgRNA; assay: Storage of cloaked EMX1-sgRNA in frozen RNase-free water (−80° C.); assay type: physicochemical; settings: 9 months
Experimental: FIG. 4. Integrity of cloaked EMX1-sgRNA (105 nt) upon incubation in frozen RNase-free water after 9 months (−80° C.).
as §4

[13] = tested on: Fluc-mRNA; assay: Accelerated RNA aging of cloaked Fluc-mRNA in water at 37° C.; assay type: physicochemical; settings: extensive cloaking (>90% of unpaired 2′-hydroxyls), six days in water
Experimental: as §3

[14] = tested on: HeLa cells; assay: Translation of cloaked eGFP-mRNA in transfected HeLa cells (flow cytometry, fluorescence imaging); assay type: cell-based, human; settings: intermediately cloaked, over two days
From the text: Intact cells maintain high intracellular concentrations of nucleophilic species such as cysteine and glutathione. […] In this example, we employed cloaked mRNAs encoding fluorescent reporter proteins. Indeed, we observed the emergence of strong green fluorescence signals by flow cytometry over a period of two days in HeLa cells transfected with intermediately DMG-cloaked eGFP-mRNA. […] Moreover, the delayed translation of cloaked mRNAs reflects an initial uncloaking step, which when occurring over time may provide slow-release translation kinetics—reducing an early expression peak and extending the duration of translation (see below). Finally, we also observed that translation of eGFP-mRNA with alkoxyl acyl adduct can also be restored in cells, highlighting possible control over mRNA release kinetics by modification of the acyl group.

[15] = tested on: mRNAs (TBP, PPIE, and PSMB6); settings: HEK293 total RNA cloaked with DMG acylimidazole; Tris alone, neutral pH, 24 h
Experimental: For instance, the ability of a single 2′-acylation to halt reverse transcriptase during primer extension necessitates efficient 2′-deacylation to avoid premature reverse transcription termination. […] We isolated and cloaked total cellular RNA from HEK293 cells with DMG acylimidazole, and recovery efficiency was evaluated for three representative mRNAs by the reverse transcription efficiencies. […] Recent experiments have shown that local 2′-acylation can terminate translation when

For C1CN2CCN1CC2 [DABCO, 1,4-diazabicyclo[2.2.2]octane], the “restoration of DNA cleavage of cloaked sgRNA” value [1] was “fully restored DNA cleavage”.
For CN(C)CC(=O)n1ccnc1 [DMG acylimidazole, N,N-dimethylglycine (DMG) acylimidazole], the “protection of eGFP-mRNA from nucleolytic degradation by RNase T1” value [2] was “effectively shielded”, the “protection of eGFP-mRNA from nucleolytic degradation by RNase A” value [3] was “effectively shielded” and the “recovery of eGFP expression” value [4] was “confirmed generality”. The “recovery of eGFP expression” value [5] was “confirmed generality”, the “serum stability of a bulge loop RNA motif” value ([6]; bulge loop) was “increases the serum stability” and the “serum stability of an internal loop motif” value ([6]; internal loop) was “minimal enhancement”. The “serum stability of a structurally complex pseudoknot” value ([6]; pseudoknot) was “increases the serum stability”, the “translation of cloaked eGFP-mRNA in vitro” value ([7]; eGFP-mRNA densely cloaked (50%)) was “strongly blocked the translation” and the “enhancement of total protein output of d2GFP-mRNA” value ([8]; HeLa cells, versus unprotected d2GFP-mRNA) was 31%. The “duration of sustained d2GFP-mRNA translation at its peak level” value ([8]; intermediate cloaking, HeLa) was ~10 h, the “reversal of 2′-acyl adduct by Tris buffer alone” value [9] was “substantial” and the “increase in serum stability of EMX1-sgRNA” value [10] was “up to 14 fold”. The “resistance of cloaked eGFP-mRNA to thermal degradation” value (“resistance of cloaked eGFP-mRNA” for short) [11] was “slightly reduced enhancement of RNA thermal stability”, the “extension of lifespan of eGFP-mRNA” value ([11]; RNase-free water, 37° C.) was ~5 fold and the “stability of in vitro transcribed EMX1-sgRNA on storage” value [12] was “enhanced stability”.
In the case of [N-]=[N+]=NCc1ncccc1C(=O)n1ccnc1 [NAIN3, (2-(azidomethyl)pyridin-3-yl)(1H-imidazol-1-yl)methanone, reference compound], the “backbone cleavage of Fluc-mRNA” value [13] is reported as “almost completely blocked backbone cleavage”, the “translation of cloaked eGFP-mRNA in cells” value [14] is reported as “translation remained strongly inhibited” and the “reversibility of acyl adducts by nucleophiles” value (from here on “reversibility of acyl adducts”) [9] is reported as “can be reversed via Staudinger reaction”. For the same compound, the “extension of lifespan of eGFP-mRNA” value ([11]; RNase-free water, 37° C.) was -7 fold, the “extension of lifespan of intact eGFP-mRNA” value ([11]; intermediate cloaking (˜50% of unpaired 2′-hydroxyls), RNase-free water, 37° C.) was -3 fold and the “damage to the nucleobases (deamination of adenine and cytosine)” value ([11]; within the timespan of the aging experiment) was “No damage to the nucleobases”.
In the case of CC(=O)n1ccnc1 [acetylimidazole], the “reversibility of acyl adducts” value [9] is reported as “relatively resistant to reversal by nonbasic nucleophiles”, the “reversal of 2′-acyl adduct by Tris buffer alone” value [9] is reported as “not reversed by Tris” and the “resistance of cloaked eGFP-mRNA” value [11] is reported as “attenuated RNA hydrolysis”.
With CCOCC(=O)n1ccnc1 [ethoxyacetyl compound] the “resistance of cloaked eGFP-mRNA” value [11] was “providing the most stability”.
In the case of O=C(c1cccnc1)n1ccnc1 [nicotinic acid acylimidazole], the “reversibility of acyl adducts” value [9] is reported as “relatively resistant to reversal by nonbasic nucleophiles”.
With tris(hydroxymethyl)aminomethane the “restoration of DNA cleavage of cloaked sgRNA” value [1] was “fully restored DNA cleavage”, the “restoration of eGFP expression” value ([7]; DMG acylimidazole-cloaked eGFP-mRNA, Tris, pH=7.5 at 37° C.) was “up to 87%” and the “recovery of reverse transcription of cloaked mRNAs” value [15] was “reinstated the reverse transcription”.
